Laboratory results from patent publication US20080161422A1, “Methods and Compositions for the Treatment of Lipid-Associated Disorders” (priority 2005, published 2008).
Entries after “also recorded” stand apart in the source; their conditions may differ.

What was measured:
mouse niacin receptor = target: T1, mouse niacin receptor (Mus musculus, UniProt Q9EP66); experiment: MAP kinase ELISA (phosphoERK1/2) in CHO cells expressing the mouse niacin receptor; assay type: cell-based; conditions: compared to niacin
T1 construct: expressed in transfected cells; host or cells: CHO cells
T1 sequence (Q9EP66 whole entry): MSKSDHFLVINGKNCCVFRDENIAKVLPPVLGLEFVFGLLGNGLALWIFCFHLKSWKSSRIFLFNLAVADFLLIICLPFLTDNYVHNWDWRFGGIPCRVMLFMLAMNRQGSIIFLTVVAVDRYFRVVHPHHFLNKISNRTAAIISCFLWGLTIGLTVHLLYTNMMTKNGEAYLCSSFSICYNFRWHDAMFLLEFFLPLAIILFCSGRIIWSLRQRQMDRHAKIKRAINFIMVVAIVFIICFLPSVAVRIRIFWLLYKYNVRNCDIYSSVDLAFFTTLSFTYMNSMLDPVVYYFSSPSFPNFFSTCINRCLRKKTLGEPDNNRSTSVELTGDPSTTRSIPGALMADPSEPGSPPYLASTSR
Method: A kit from Biosource (phosphoERK1/2 pT185pY187 ELISA, Catalog #KHO-0091) was used according to the following protocol.
The cells were serum-starved overnight prior to stimulating the cells with compound.
A. Compounds were dissolved in DMSO. […] PMA (100 ng/ml) was used as a positive control. B. Cell dishes were taken out of the incubator and placed on a rocker set to gentle rocking (set speed at 4). Compound was carefully added and cells were returned to the incubator to incubate for 5 min. At 4.5 min, the medium was aspirated from dishes in the order that the compound was added. Then 2 ml cold PBS was added and excess medium was removed by gentle swirling. The PBS was aspirated and 1 ml of PBS was added (1 ml for confluent 6 cm dish).
A. Cells were scraped from dish with a rubber policeman and transferred to a microfuge tube, then centrifuged at 3000 rpm at 4° C. for 5 minutes. B. The PBS was aspirated and cell pellet lysed in Cell Extraction Buffer (0.1% SDS) (250-300 μl for confluent 6 cm dish) for 30 min. on ice with vortexing at 10 min intervals. C. The mixture was then centrifuged at max speed (16,000×G) for 15 min. at 4° C. D. Clarified lysates were transferred to new microfuge tubes and protein concentration measure. […]
A. All reagents were at room temperature and mixed before use. […] The number of 8 well strips needed for assay was determined and bag was sealed and returned to 4° C. […]

niacin receptor [1] = target: T2, niacin receptor (Homo sapiens, UniProt Q8TDS4); experiment: Binding to the niacin receptor
T2 sequence (Q8TDS4 whole entry): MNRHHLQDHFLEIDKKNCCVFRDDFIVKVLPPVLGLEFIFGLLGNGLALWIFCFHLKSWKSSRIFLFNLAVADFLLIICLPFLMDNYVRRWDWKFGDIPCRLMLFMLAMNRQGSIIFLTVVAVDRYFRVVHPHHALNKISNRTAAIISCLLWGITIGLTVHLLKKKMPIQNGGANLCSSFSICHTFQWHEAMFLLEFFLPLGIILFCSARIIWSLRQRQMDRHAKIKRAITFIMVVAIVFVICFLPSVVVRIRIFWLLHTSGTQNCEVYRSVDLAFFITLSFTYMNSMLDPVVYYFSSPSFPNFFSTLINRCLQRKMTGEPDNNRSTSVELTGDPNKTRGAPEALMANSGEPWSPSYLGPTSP

niacin receptor [2] = target: T2, niacin receptor; experiment: MAP kinase ELISA (phosphoERK1/2) in CHO cells expressing the human niacin receptor; conditions: compared to niacin
[3] = tested on: women suffering from painful menstrual cramps; conditions: 80 women; 100 mg niacin twice daily, then every 2 to 3 hours during heavy cramps; cited from earlier work

| Structure (SMILES) | MAP kinase activation (mouse niacin receptor) | binding to the niacin receptor (niacin receptor [1]) | MAP kinase activation (niacin receptor [2]) | subjects experiencing significant relief [3] |
| --- | --- | --- | --- | --- |
| c1cncc(-c2nn[nH]n2)c1 [Compound 12] | closely matches the profile of niacin; also recorded: behaves like niacin in a MAP kinase assay | binds to the niacin receptor | closely matches the profile of niacin; also recorded: behaves like niacin in a MAP kinase assay | – |
| O=C(O)c1cccnc1 [niacin, nicotinic acid] | – | – | – | About 90% |
